A short description of test [1]: Inhibition of PP1 in rabbit skeletal muscle. Type of test: tissue-based, Oryctolagus cuniculus, Muscle tissue.
A short description of test [2]: Inhibition of PP2A in human red blood cells. Type of test: cell-based.
Test [3] can be described thus: Selectivity ratio of IC50 for rabbit skeletal muscle PP1 over IC50 for human PP2A. The settings on record: Muscle tissue. Type of test: tissue-based.
Test [4] is described as follows: (§1) Inhibition of bovine brain PP2B. Details: species or system Bos taurus.
Test [5] can be described thus: Selectivity ratio of IC50 for rabbit skeletal muscle PP1 over IC50 for bovine brain PP2B. The settings on record: Muscle tissue. It is filed as tissue-based.
For another test, the species on record is Bos taurus. The description is as §1.

The IC50 is the midpoint of a concentration-inhibition curve. A higher IC50 goes with a need for much substance. In the case of `CN(C)CCNC(=O)C1C(C(=O)O)[C@H]2CC[C@@H]1O2` (stereo partly specified), the IC50 in test [1] was 67 µM; in test [2], above 100 µM. Moreover, the Ratio IC50 in test [3] was below 0.67.
Consider `O=C(Nc1ccc(N2CCOCC2)cc1)C1C(C(=O)O)[C@H]2CC[C@@H]1O2` (stereo partly specified), for which the 50% inhibitory concentration (IC50) in test [1] was determined as 6.5 µM; in test [2], 7.9 µM; in test [4] it was 42 µM. Besides, the figures for the Ratio IC50 in test [3] and in test [5] were 0.82 and 0.15, respectively.
`CCc1ccccc1NC(=O)C1C(C(=O)O)[C@H]2CC[C@@H]1O2` (stereo partly specified): the figures for the IC50 in test [1] and in test [2] were 51 µM and 24 µM, respectively. In addition, the Ratio IC50 in test [3] came out at 2.12.
For `COc1ccc(NC(=O)C2C(C(=O)O)[C@H]3CC[C@@H]2O3)cc1` (stereo partly specified) the same measures were 15 µM, 16 µM and 0.94.
For the compound `O=C(NCCN1CCOCC1)C1C(C(=O)O)[C@H]2CC[C@@H]1O2` (stereo partly specified), the values for the IC50 in test [1] and in test [2] were 30 µM and 43 µM, respectively. Also, in test [3], the Ratio IC50 stood at 0.7.
The matching figures for `CCCCCCOc1ccc(NC(=O)C2C(C(=O)O)[C@H]3CC[C@@H]2O3)cc1` (stereo partly specified): 11 µM, 15 µM and 0.73.
The matching figures for `O=C(NCc1ccc(F)c(F)c1)C1C(C(=O)O)[C@H]2CC[C@@H]1O2` (stereo partly specified): 26 µM, 26 µM and 1.
For `O=C(NCCCCc1ccccc1)C1C(C(=O)O)[C@H]2CC[C@@H]1O2` (stereo partly specified) the same measures were 75 µM, 95 µM and 0.79.
With `O=C(Nc1cccc(CO)c1)C1C(C(=O)O)[C@H]2CC[C@@H]1O2` (stereo partly specified), the IC50 is 15 µM in test [1] and 7 µM in test [2]. In test [3], the Ratio IC50 was determined as 2.14.
For `CSc1ccccc1NC(=O)C1C(C(=O)O)[C@H]2CC[C@@H]1O2` (stereo partly specified) the same measures were 23 µM, 33 µM and 0.7.
For the compound `Cc1cccc(C)c1NC(=O)C1C(C(=O)O)[C@H]2CC[C@@H]1O2` (stereo partly specified), the IC50 in test [1] amounted to 56 µM; in test [2], 72 µM. Moreover, the Ratio IC50 in test [3] was 0.78.
Take `CC(C)(C)c1ccc(NC(=O)C2C(C(=O)O)[C@H]3CC[C@@H]2O3)cc1` (stereo partly specified): the concentration for half-maximal inhibition (IC50) in test [1] stood at 10 µM; in test [2] it was 11 µM. Moreover, the Ratio IC50 in test [3] is 0.91.
For `CN(C)CCCNC(=O)C1C(C(=O)O)[C@H]2CC[C@@H]1O2` (stereo partly specified) the same measures were 43 µM, 57 µM and 0.75.
The matching figures for `CSc1ccc(NC(=O)C2C(C(=O)O)[C@H]3CC[C@@H]2O3)cc1` (stereo partly specified): 10 µM, 14 µM and 0.71.
The matching figures for `O=C(NCCCc1ccccc1)C1C(C(=O)O)[C@H]2CC[C@@H]1O2` (stereo partly specified): 25 µM, 25 µM and 1.
Consider `CC(C)(C)c1ccc(NC(=O)C2C(C(=O)O)[C@H]3CC[C@@H]2O3)c(C(C)(C)C)c1` (stereo partly specified), for which the half-inhibitory concentration (IC50) in test [1] and in test [2] was 8.2 µM in each case. The Ratio IC50 in test [3] came to 1.
On to `O=C(Nc1ccccc1)C1C(C(=O)O)[C@H]2CC[C@@H]1O2` (stereo partly specified), for which the half-maximal inhibitory concentration (IC50) was found to be 24.3 µM in test [1] and 7.7 µM in test [2]. Moreover, in test [3], the Ratio IC50 came out at 3.2.
The matching figures for `O=C(NCc1ccc(C(F)(F)F)cc1)C1C(C(=O)O)[C@H]2CC[C@@H]1O2` (stereo partly specified): 16 µM, 20 µM and 0.8.
With `C[C@@]12C(=O)OC(=O)[C@]1(C)[C@H]1CC[C@@H]2O1` [CANTHARIDIN], the values for the IC50 (in test [1]; in test [2]; in the test filed under Bos taurus) were 7.6 µM, 0.99 µM and above 100 µM, respectively. The values for the Ratio IC50 in test [3] and in test [5] were 7.7 and above 0.07, respectively.
With `C#Cc1cccc(NC(=O)C2C(C(=O)O)[C@H]3CC[C@@H]2O3)c1` (stereo partly specified), the IC50 was 17 µM in test [1] and 18 µM in test [2]. Moreover, the Ratio IC50 in test [3] was found to be 0.94.
For `O=C(Nc1ccccc1CO)C1C(C(=O)O)[C@H]2CC[C@@H]1O2` (stereo partly specified) the same measures were 36 µM, 39 µM and 0.92.
Consider `Cc1cc(C)c(NC(=O)C2C(C(=O)O)[C@H]3CC[C@@H]2O3)c(C)c1` (stereo partly specified), for which the values for the IC50 in test [1], in test [2] and in test [4] were 48 µM, 85 µM and 89 µM, respectively. The Ratio IC50 in test [3] was 0.56; in test [5] it was 0.54.
As for `Cc1cccc(NC(=O)C2C(C(=O)O)[C@H]3CC[C@@H]2O3)c1C` (stereo partly specified), the results for the concentration for half-maximal inhibition (IC50) in test [1] and in test [2] were 17 µM and 18 µM, respectively. In addition, in test [3], the Ratio IC50 is 0.94.
Take `O=C1OC(=O)C2C3CCC(O3)C12` (stereo unspecified) [DEMETHYL-CANTHARIDIN]: the figures for the IC50 in test [1], in test [2] and in test [4] were 10.3 µM, 2.69 µM and 31 µM, respectively. Also, the Ratio IC50 in test [3] is 3.8; in test [5] it was 0.33.
In the case of `O=C(NCc1ccccc1)C1C(C(=O)O)[C@H]2CC[C@@H]1O2` (stereo partly specified), the IC50 was 35 µM in test [1] and 12 µM in test [2]. Moreover, in test [3], the Ratio IC50 stood at 2.9.
The matching figures for `O=C(Nc1ccc2ccccc2c1)C1C(C(=O)O)[C@H]2CC[C@@H]1O2` (stereo partly specified): 14 µM, 15 µM and 0.93.

(Values after ChEMBL document CHEMBL1137527, “Synthesis and biological evaluation of norcantharidin analogues: towards PP1 selectivity” (Bioorg Med Chem, 2007).)
